In assay [1] the test system is Rattus norvegicus. Nature of the assay: PCA activity of compound in rat at 100 mg/kg dose. Format: functional.
For assay [2], the system named is Rattus norvegicus. Nature of the assay: Tested for PCA activity in rat at 200 mg/kg dose. Format: functional.
In assay [3] the test system is Rattus norvegicus. Nature of the assay: Tested for anti PCA- activity when compound was administered perorally 60 min before challenge in. Particulars: po. Format: functional.
For assay [4], the system named is Rattus norvegicus. Nature of the assay: Tested for antigenic challenge time, time measured was immediate when compound was administered before challenge in rat; immediate. The class given is functional, organism-based.
Assay [5] relates to Rattus norvegicus. Nature of the assay: Tested for PCA activity of compound in rat at 10 mg/kg intravenous dose. The class given is functional.
The test system of assay [6] is Rattus norvegicus. In words: Tested for antigenic challenge time, time measured was immediate when compound was administered before challenge in rat; Immed = Immediate. The class given is functional, organism-based.
Assay [7] relates to Rattus norvegicus. Nature of the assay: Tested for PCA activity of compound in rat at 2.5 mg/kg intravenous dose. The class given is functional.
Assay [8] relates to Rattus norvegicus. Nature of the assay: Tested for anti PCA- activity when compound was administered intravenously 60 min before challenge in rat. Format: functional. Particulars: iv.
Assay [9] deals with Rattus norvegicus. Nature of the assay: Tested for antigenic challenge time, time measured was immediate when compound was administered before challenge in rat;Immed = Immediate. The class given is functional, organism-based.
Assay [10] concerns Rattus norvegicus. Nature of the assay: Tested for PCA activity of compound in rat at 5 mg/kg intravenous dose. The class given is functional.
Assay [11] deals with Rattus norvegicus. In words: Tested for PCA activity of compound in rat at 1.0 mg/kg intravenous dose. Format: functional.
Assay [12] relates to Rattus norvegicus. In words: Tested for anti PCA- activity when compound was administered orally 60 min before challenge in exp1. Format: functional. Particulars: po.
Assay [13] deals with Rattus norvegicus. Nature of the assay: Tested for anti PCA- activity when compound was administered orally 60 min before challenge in exp2. Format: functional. Particulars: po.
The subject of assay [14] is Rattus norvegicus. In words: Tested for PCA activity of compound in rat at 50 mg/kg dose at 60 min challenge time. Particulars: 1 h. The class given is functional.
For assay [15], the system named is Rattus norvegicus. In words: Tested for PCA activity of compound in rat at 50 mg/kg dose. The class given is functional.
Assay [16] concerns Rattus norvegicus. Nature of the assay: Tested for PCA activity of compound in rat at 25 mg/kg dose. Format: functional.

The term inhibition in vivo denotes the drop in the measured response relative to a control, in per cent. Higher therefore signals a strong effect. `CCN(CC)CCNC(=O)c1cc(Cl)c(NC(=O)COc2ccc(OC)cc2)cc1OC.Cl` had an inhibition in vivo at 100 mg/kg in the assay with Rattus norvegicus [1] of 53%. The molecule further displayed an inhibition in vivo at 200 mg/kg in the assay with Rattus norvegicus [2] of 33%.
Turning to `CCN(CC)CCNC(=O)c1cc(Cl)c(NC(=O)COc2ccccc2)cc1OC`, the inhibition in vivo at 100 mg/kg in the assay with Rattus norvegicus [1] was 47%. In the assay with Rattus norvegicus [2], the inhibition in vivo at 200 mg/kg was 67%.
As to `CCN(CC)CCNC(=O)c1cc(Cl)c(NC(=O)COc2ccc(C)cc2)cc1OC`, the inhibition in vivo at 100 mg/kg in the assay on Rattus norvegicus [1] came to 22%.
In the assay with Rattus norvegicus [1], `CCN(CC)CCNC(=O)c1cc(Cl)c(NC(=O)COc2ccc(Cl)c(Cl)c2)cc1OC.Cl` registered an inhibition in vivo at 100 mg/kg of 0%. The same molecule came in with an inhibition in vivo at 200 mg/kg in the assay on Rattus norvegicus [2] of 0%.
For the molecule `CCN(CC)CCNC(=O)c1cc(Cl)ccc1NC(=O)COc1ccc(F)cc1`, in the assay with Rattus norvegicus [1], 100 mg/kg produced 0% inhibition in vivo.
Still for that read-out and setting: under `CCN(CC)CCNC(=O)c1cc(NC(=O)COc2ccc(Cl)cc2)ccc1OC(C)=O` stands 0%; under `CCN(CC)CCNC(=O)c1cc(Cl)ccc1NC(=O)COc1ccc(Cl)cc1`, 0%.
`COc1cc(NC(=O)COc2ccc(Cl)cc2)c(Cl)cc1NCCN1CCCC1`: in the assay with Rattus norvegicus [2], the inhibition in vivo at 200 mg/kg came out at 20%.
In the assay with Rattus norvegicus [2], `CCN(CC)CCNC(=O)c1cc(Cl)c(NC(=O)C(Oc2ccc(Cl)cc2)Oc2ccc(Cl)cc2)cc1OC` registered an inhibition in vivo at 200 mg/kg of 0%.
The molecule `COc1cc(NC(=O)COc2ccc(Cl)cc2)c(Cl)cc1C(=O)N1CCN(C(c2ccccc2)c2ccccc2)CC1` had an inhibition in vivo at 100 mg/kg in the assay on Rattus norvegicus [1] of 0%.
Turning to `COc1cc(NC(=O)COc2ccc(Cl)cc2)c(Cl)cc1C(=O)NCc1cccnc1`, 200 mg/kg produced 20% inhibition in vivo with Rattus norvegicus [2].
In turn, `CCN(CC)CCNC(=O)c1cc(Cl)c(NC(=O)CSc2ccccc2)cc1OC` registered an inhibition in vivo at 100 mg/kg in the assay on Rattus norvegicus [1] of 26%.
As to `CCN(CC)CCNC(=O)c1ccc(NC(=O)COc2ccc(Cl)cc2)cc1`, the inhibition in vivo at 200 mg/kg in the assay on Rattus norvegicus [2] amounted to 0%.
The molecule `CCN(CC)CCCNC(=O)c1cc(Cl)c(NC(=O)COc2ccc(Cl)cc2)cc1OC` had an inhibition in vivo at 200 mg/kg with Rattus norvegicus [2] of 20%.
Still for that read-out and setting: the result for `CCN(CC)CCNC(=O)c1ccc(NC(=O)COc2ccc(Cl)cc2)c(OC)c1` reads 20%.
Turning to `COc1cc(NC(=O)COc2ccc(Cl)cc2)c(Cl)cc1C(=O)O`, the inhibition in vivo at 200 mg/kg in the assay on Rattus norvegicus [2] turned out to be 0%.
For the molecule `CCN(CC)CCNC(=O)c1ccc(NC(=O)COc2ccc(Cl)cc2)c(Cl)c1.O=C(O)CC(O)(CC(=O)O)C(=O)O`, in the assay on Rattus norvegicus [1], the inhibition in vivo at 100 mg/kg was found to be 14%. The molecule further had an inhibition in vivo at 200 mg/kg with Rattus norvegicus [2] of 0%.
A word on the ED50: it is the midpoint of the dose-response relation. A high value points to a need for a large dose. For the molecule `Cn1c(=O)c2nc[nH]c2n(C)c1=O.O` [THEOPHYLLINE], the 50% effect level in the assay on Rattus norvegicus [3] (ED50) was put at a dose of 47.2 mg/kg.
`COc1cc(NC(=O)COc2ccc(Cl)cc2)c(Cl)cc1C(=O)N1CCN(C/C=C/c2ccccc2)CC1` gave an inhibition in vivo at 100 mg/kg with Rattus norvegicus [1] of 0%.
In the case of `CCN(CC)CCNC(=O)c1cc(Cl)c(NC(=O)COc2cccc(C(F)(F)F)c2)cc1OC.Cl`, in the assay on Rattus norvegicus [1], the inhibition in vivo at 100 mg/kg was 53%. Besides, the inhibition in vivo at 200 mg/kg in the assay with Rattus norvegicus [2] worked out at 40%.
Consider `CCN(CC)CCNC(=O)c1cc(Cl)c(N)cc1OC` [METOCLOPRAMIDE], for which the Challenge time result in the assay with Rattus norvegicus [4] is listed as “Immediate”. In the assay on Rattus norvegicus [5], 10 mg/kg produced 84% inhibition in vivo. In the assay with Rattus norvegicus [1], this molecule came in with an inhibition in vivo at 100 mg/kg of 14%.
Regarding `CCN(CC)CCNC(=O)c1ccc(Cl)c(NC(=O)COc2ccc(Cl)cc2)c1`, the inhibition in vivo at 100 mg/kg in the assay with Rattus norvegicus [1] was determined as 7%.
In the case of `CCN(CC)CCNC(=O)c1ccc(NC(=O)COc2ccccc2)c(OC)c1`, the inhibition in vivo at 200 mg/kg in the assay with Rattus norvegicus [2] amounted to 20%.
On to `O=C([O-])c1cc(=O)c2c(OCC(O)COc3cccc4oc(C(=O)[O-])cc(=O)c34)cccc2o1.[Na+].[Na+]` [CROMOLYN SODIUM], for which the Challenge time result in the assay on Rattus norvegicus [6] and with Rattus norvegicus [9] was “Immed” each time. Also, the inhibition in vivo at 2.5 mg/kg with Rattus norvegicus [7] worked out at 58%. Further, in the assay on Rattus norvegicus [8], it took a dose of 2 mg/kg to reach the 50% effect level (ED50). Moreover, 5 mg/kg produced 78% inhibition in vivo with Rattus norvegicus [10]. This molecule also showed an inhibition in vivo at 1 mg/kg in the assay with Rattus norvegicus [11] of 28%.
Consider `CCN(CC)CCNC(=O)c1cc(Cl)c(NC(=O)COc2ccc(Cl)cc2)cc1OC.Cl` [CLOXACEPRIDE HYDROCHLORIDE], for which, in the assay with Rattus norvegicus [1], at 100 mg/kg the inhibition in vivo was 69%. In addition, the ED50 in the assay with Rattus norvegicus [12] came out at 49 mg/kg; in the assay on Rattus norvegicus [13] it was 46.9 mg/kg. In the assay on Rattus norvegicus [2], this molecule yielded an inhibition in vivo at 200 mg/kg of 75%. Besides, in the assay on Rattus norvegicus [14], the inhibition in vivo at 50 mg/kg was found to be 49%.
Regarding `COc1cc(NC(=O)COc2ccc(Cl)cc2)c(Cl)cc1C(=O)N1CCN(C)CC1`, in the assay with Rattus norvegicus [1], the inhibition in vivo at 100 mg/kg was determined as 0%.
The same measure, in the same setting: under `O=C(O)c1ccc2oc3ccc(OCCO)cc3c(=O)c2c1` stands 71%.
`CCN(CC)CCNC(=O)c1cc(Cl)c(NC(=O)COc2cccc(Cl)c2Cl)cc1OC` gave an inhibition in vivo at 200 mg/kg in the assay on Rattus norvegicus [2] of 0%.
As for `CCN(CC)CCNC(=O)c1cc(Cl)c(NC(=O)C(C)(C)Oc2ccc(Cl)cc2)cc1OC.Cl`, in the assay with Rattus norvegicus [1], 100 mg/kg produced 0% inhibition in vivo. 200 mg/kg produced 20% inhibition in vivo with Rattus norvegicus [2].
As for `CCOC(=O)c1cc(Cl)c(NC(=O)COc2ccc(Cl)cc2)cc1OC`, the inhibition in vivo at 100 mg/kg in the assay on Rattus norvegicus [1] is 93%. This molecule gave an inhibition in vivo at 200 mg/kg in the assay with Rattus norvegicus [2] of 20%.
With `CCN(CC)CCNC(=O)c1cccc(NC(=O)COc2ccc(Cl)cc2)c1`, in the assay with Rattus norvegicus [1], testing at 100 mg/kg gave an inhibition in vivo of 7%.
Molecule `CCN(CC)CCNC(=O)c1cc(Cl)c(NC(=O)COc2ccc(F)cc2)cc1OC` showed an inhibition in vivo at 100 mg/kg in the assay on Rattus norvegicus [1] of 33%. In the assay with Rattus norvegicus [2], this molecule yielded an inhibition in vivo at 200 mg/kg of 67%.
As for `CCN(CC)CCNC(=O)c1cc(Cl)c(NC(=O)COc2ccc(Cl)cc2Cl)cc1OC`, testing at 200 mg/kg in the assay on Rattus norvegicus [2] gave an inhibition in vivo of 0%.
`CCN(CC)CCNC(=O)c1cc(Cl)c(NC(=O)COc2ccccc2Cl)cc1OC` came in with an inhibition in vivo at 200 mg/kg with Rattus norvegicus [2] of 0%.
Take `CCN(CC)CCNC(=O)c1cc(Cl)c(NC(=O)CNc2ccccc2)cc1OC`: the inhibition in vivo at 100 mg/kg in the assay on Rattus norvegicus [1] is 5%.
`CCN(CC)CCNC(=O)c1cc(Cl)c(NC(=O)COc2ccc(I)cc2)cc1OC` gave an inhibition in vivo at 100 mg/kg in the assay with Rattus norvegicus [1] of 0%. Besides, at 200 mg/kg the inhibition in vivo in the assay with Rattus norvegicus [2] was 27%.
Consider `CCN(CC)CCNC(=O)c1cc(Cl)c(NC(=O)C(C)Oc2ccc(Cl)cc2)cc1OC.Cl` (stereo not drawn), for which 100 mg/kg produced 62% inhibition in vivo in the assay on Rattus norvegicus [1]. Besides, the values for the ED50 with Rattus norvegicus [12] and in the assay with Rattus norvegicus [13] were 64.5 mg/kg and 60.9 mg/kg, respectively. For the same molecule, the inhibition in vivo at 200 mg/kg in the assay with Rattus norvegicus [2] came to 32%. Also, in the assay on Rattus norvegicus [15], 50 mg/kg produced 41% inhibition in vivo.
Regarding `CCN1CCCC1CNC(=O)c1cc(Cl)c(NC(=O)COc2ccc(Cl)cc2)cc1OC` (stereo not drawn), the inhibition in vivo at 50 mg/kg with Rattus norvegicus [15] was found to be 60%. In the assay on Rattus norvegicus [16], this molecule showed an inhibition in vivo at 25 mg/kg of 53%.

The values are drawn from ChEMBL document CHEMBL1122248, “Cloxacepride and related compounds: a new series of orally active antiallergic compounds” (1983).
